Here are results for two molecules from US9605013B2, “Derivatives of hemin with antibacterial and antiviral activity” (OBSCHESTVO S OGRANICHENNOI OTVETSTVENNOSTIYU …, priority 2011, dated 2017).

In this experiment the test system is Enterococcus faecalis BKM B-871. The experiment can be described thus: Antibacterial activity, serial dilutions in liquid MH medium. Particulars: for MIC: MH medium, 20 h, 37° C., 100% growth inhibition; for MBC: no colonies on agarized MH medium. In kind it is cell-based. A digest of the protocol:
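Broth microdilution in Mueller-Hinton medium at 37 °C with stirring, using exponential-phase cultures seeded at 5×10^4 to 1×10^5 cells/mL with twofold serial compound dilutions. Growth inhibition read as A595 after 20 h, corrected for compound absorbance; MIC and MBC determined.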

The MIC is the smallest concentration in the dilution series that meets the test's criterion for growth inhibition. A high value points to weaker potency. By MBC is commonly meant the lowest tested concentration that kills the bacteria rather than only halting them. The molecule “6,7-bis-[(Diamide N^α-L-Arginyl)-L-glutamyl]-Protohemin (IX)” showed a minimum inhibitory concentration (MIC) of 25 µM and a minimal bactericidal concentration (MBC) of 50 µM.
The matching figures for `C=CC1=C(C)c2cc3[n-]c(cc4[n-]c(cc5nc(cc1n2)C(C)=C5C=C)c(C)c4CCC(=O)N[C@@H](CCCNC(=N)N)C(N)=O)c(CCC(=O)N[C@@H](CCCNC(=N)N)C(N)=O)c3C.[Cl-].[Fe+3]` [II, 6,7-bis-(Amide N^α-Arginyl)-Protohemin (IX)]: 6.3 µM and 12.5 µM.
